Assay results reported in ChEMBL document CHEMBL5214949, “Synthesis and biological evaluation of (4-hydroxy-2-(substitued sulfonamido)pyrimidine-5-carbonyl)glycines as oral erythropoietin secretagogues” (Bioorg Med Chem Lett, 2022).
Values belong to the molecule of their own block, whether it stands above or below them. Active and inactive are the calls of the source. The rule behind the calls is not given here.

Key:
[1] = Cytotoxicity against human Hep3B cells assessed as cell viability at 12.5 ug/ml measured by MTT assay; assay type: toxicity, cell-based, Hep 3B2; details: at 12.5 µg/mL, read-out: Activity
[2] = Cytotoxicity against human Hep3B cells assessed as cell viability at 100 ug/ml measured by MTT assay; assay type: toxicity, cell-based, Hep 3B2; details: at 100 µg/mL, read-out: Activity
Mus musculus = test: In vivo inhibition of PHD2 in ICR mouse assessed as increase in serum EPO production at 10 mg/kg, po and measured after 4 hrs by ELISA; assay type: functional, organism-based
Egl nine homolog 1 = Egl nine homolog 1 (Homo sapiens, UniProt Q9GZT9); test: Inhibition of PHD2 in human Hep3B cells assessed as increase in EPO production measured after 24 hrs by ELISA; assay type: cell-based
Egl nine homolog 1, sequence (Q9GZT9 whole entry): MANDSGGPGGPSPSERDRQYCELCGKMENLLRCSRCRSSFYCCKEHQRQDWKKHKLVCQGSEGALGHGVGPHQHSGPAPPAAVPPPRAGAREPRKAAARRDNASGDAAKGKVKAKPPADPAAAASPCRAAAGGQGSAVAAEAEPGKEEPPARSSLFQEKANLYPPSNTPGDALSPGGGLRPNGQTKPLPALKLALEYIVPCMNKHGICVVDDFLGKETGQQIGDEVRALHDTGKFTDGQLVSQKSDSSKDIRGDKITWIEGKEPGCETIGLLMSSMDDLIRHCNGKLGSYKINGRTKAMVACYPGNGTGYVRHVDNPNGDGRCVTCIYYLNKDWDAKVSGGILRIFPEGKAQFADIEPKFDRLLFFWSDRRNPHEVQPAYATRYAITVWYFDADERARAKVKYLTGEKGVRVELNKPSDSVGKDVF

Structure (SMILES): Cc1nc(C(=O)NCC(=O)O)c(O)c2ccc(Oc3ccccc3)cc12 [ROXADUSTAT]
viability at 12.5 ug/ml [1]: 89.9%
viability at 100 ug/ml [2]: 58.5%
inhibition (Mus musculus): Active

Structure (SMILES): O=C(O)CNC(=O)c1cnc(NS(=O)(=O)c2ccc(C(F)(F)F)cc2)nc1O
viability at 12.5 ug/ml [1]: 97.2%
viability at 100 ug/ml [2]: 95.8%
inhibition (Mus musculus): Active

Structure (SMILES): O=C(O)CNC(=O)c1cnc(NS(=O)(=O)c2ccccc2)nc1O
inhibition (Mus musculus): Active

EC50 (Egl nine homolog 1): 9.27 µM
Structure (SMILES): Cc1ccc(S(=O)(=O)Nc2ncc(C(=O)NCC(=O)O)c(O)n2)cc1
viability at 12.5 ug/ml [1]: 98.5%
viability at 100 ug/ml [2]: 102%

Structure (SMILES): O=C(O)CNC(=O)c1cnc(NS(=O)(=O)c2ccc(Cl)c(Cl)c2)nc1O
viability at 12.5 ug/ml [1]: 89.5%
viability at 100 ug/ml [2]: 90.9%

Structure (SMILES): COc1ccc(S(=O)(=O)Nc2ncc(C(=O)NCC(=O)O)c(O)n2)cc1
viability at 12.5 ug/ml [1]: 105%
viability at 100 ug/ml [2]: 110%
inhibition (Mus musculus): Active

Structure (SMILES): O=C(O)CNC(=O)c1cnc(NS(=O)(=O)c2ccc(Cl)cc2)nc1O
viability at 12.5 ug/ml [1]: 85.5%
viability at 100 ug/ml [2]: 93.4%

Structure (SMILES): O=C(O)CNC(=O)c1cnc(NS(=O)(=O)c2ccc(-c3ccccc3)cc2)nc1O
viability at 12.5 ug/ml [1]: 91.9%
viability at 100 ug/ml [2]: 73.4%
inhibition (Mus musculus): Active

EC50 (Egl nine homolog 1): 7.97 µM
Structure (SMILES): O=C(O)CNC(=O)c1cnc(NS(=O)(=O)c2ccc(Br)cc2)nc1O
viability at 12.5 ug/ml [1]: 100%
viability at 100 ug/ml [2]: 116%

EC50 (Egl nine homolog 1): 1.25 µM
Structure (SMILES): O=C(O)CNC(=O)c1cnc(NS(=O)(=O)c2cccc(Cl)c2)nc1O
viability at 12.5 ug/ml [1]: 95.7%
viability at 100 ug/ml [2]: 84.4%
inhibition (Mus musculus): Active

Structure (SMILES): O=C(O)CNC(=O)c1cnc(NS(=O)(=O)Cc2ccccc2)nc1O
viability at 12.5 ug/ml [1]: 90%
viability at 100 ug/ml [2]: 87.5%
inhibition (Mus musculus): Active
